Measured values: the NIST ThermoML archive (doi:10.1021/je050420+)

What was measured:
[1] = xn = mol fraction of the nth substance listed; conditions: 298.15 K, 101 kPa, Liquid
[2] = refractive index (Na D-line) (dimensionless); conditions: 298.15 K; 101.33 kPa; Liquid; Standard Abbe refractometry
[3] = Liquid; for mass density / speed of sound: 298.15 K, 101.33 kPa

CCC(C)CO (stereo not given) [2-methyl-1-butanol] + CCOC(C)=O
[1]
Conditions | mass density [kg/m3]
x2 = 0.05 | 817.8
x2 = 0.099 | 820.9
x2 = 0.15 | 824.2
x2 = 0.2 | 827.5
x2 = 0.25 | 830.9
x2 = 0.3 | 834.4
x2 = 0.349 | 838
x2 = 0.399 | 841.7
x2 = 0.451 | 845.6
x2 = 0.499 | 849.4
x2 = 0.549 | 853.3
x2 = 0.598 | 857.3
x2 = 0.65 | 861.6
x2 = 0.699 | 865.8
x2 = 0.75 | 870.2
x2 = 0.793 | 874.2
x2 = 0.846 | 879.1
x2 = 0.9 | 884.2
x2 = 0.95 | 889.1

CC(C)CO [2-methyl-1-propanol] + CCOC(C)=O
[1]
Conditions | mass density [kg/m3]
x2 = 0.049 | 802.3
x2 = 0.101 | 806.8
x2 = 0.153 | 811.5
x2 = 0.202 | 816
x2 = 0.251 | 820.6
x2 = 0.3 | 825.2
x2 = 0.35 | 829.9
x2 = 0.401 | 834.7
x2 = 0.451 | 839.5
x2 = 0.501 | 844.3
x2 = 0.55 | 849
x2 = 0.6 | 853.8
x2 = 0.65 | 858.8
x2 = 0.7 | 863.7
x2 = 0.751 | 868.9
x2 = 0.801 | 873.8
x2 = 0.85 | 878.7
x2 = 0.9 | 883.8
x2 = 0.95 | 888.9

CC(C)CO [2-methyl-1-propanol]
Conditions | mass density [kg/m3] | refractive index | speed of sound [m/s]
[2] | – | 1.39366 | –
[3] | 797.8 | – | 1186.4

Conditions | Normal boiling temperature [°C]
[3], Ebulliometric method (Recirculating still) | 107.78

CCOC(C)=O [ethyl acetate]
Conditions | Normal boiling temperature [°C] | mass density [kg/m3] | refractive index | speed of sound [m/s]
[2] | – | – | 1.36978 | –
[3] | 77.00 | 894.3 | – | 1139.6

CCC(C)CO (stereo not given) [2-methyl-1-butanol]
Conditions | mass density [kg/m3] | refractive index | speed of sound [m/s]
[2] | – | 1.40866 | –
[3] | 814.7 | – | 1251.8

Conditions | Normal boiling temperature [°C]
[3], Ebulliometric method (Recirculating still) | 128.78
